In PubChem BioAssay AID2060620 (Molecular Pharmacology Branch, DTP, NCI, 2025):

Test system: 328373-195-R-J1-PDC complex spheroids, viability % test/control
Assay: Anticancer human tumor 328373-195-R-J1-PDC patient-derived head and neck squamous carcinoma cell line growth inhibition [CLK]
Details: for IC50: curve of first compound; for viability, T/C: stronger effect = lower value
In short: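 Multi-cell-type spheroids combined patient-derived tumor cells with HUVEC endothelial cells and human mesenchymal stem cells. Paired agents were dosed in half-log steps down from about clinical Cmax, or from 10 microM where Cmax was unknown.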

[1] = second compound 0.0316 µM, first compound 0.0316 µM
[2] = second compound 0.0316 µM, first compound 0.1 µM
[3] = second compound 0.1 µM, first compound 0.0316 µM
[4] = second compound 0.1 µM, first compound 0.1 µM
[5] = second compound 0.316 µM, first compound 0.0316 µM
[6] = second compound 0.316 µM, first compound 0.1 µM
[7] = second compound 1 µM, first compound 0.0316 µM
[8] = second compound 1 µM, first compound 0.1 µM
[9] = second compound 3.16 µM, first compound 0.0316 µM
[10] = second compound 3.16 µM, first compound 0.1 µM
[11] = second compound 10 µM, first compound 0.0316 µM
[12] = second compound 10 µM, first compound 0.1 µM
[13] = second compound 0.0316 µM, first compound 0.316 µM
[14] = second compound 0.0316 µM, first compound 1 µM
[15] = second compound 0.0316 µM, first compound 3.16 µM
[16] = second compound 0.0316 µM, first compound 10 µM
[17] = second compound 0.1 µM, first compound 0.316 µM
[18] = second compound 0.1 µM, first compound 1 µM
[19] = second compound 0.1 µM, first compound 3.16 µM
[20] = second compound 0.1 µM, first compound 10 µM
[21] = second compound 0.316 µM, first compound 0.316 µM
[22] = second compound 0.316 µM, first compound 1 µM
[23] = second compound 0.316 µM, first compound 3.16 µM
[24] = second compound 0.316 µM, first compound 10 µM
[25] = second compound 1 µM, first compound 0.316 µM
[26] = second compound 1 µM, first compound 1 µM
[27] = second compound 1 µM, first compound 3.16 µM
[28] = second compound 1 µM, first compound 10 µM
[29] = second compound 3.16 µM, first compound 0.316 µM
[30] = second compound 3.16 µM, first compound 1 µM
[31] = second compound 3.16 µM, first compound 3.16 µM
[32] = second compound 3.16 µM, first compound 10 µM
[33] = second compound 10 µM, first compound 0.316 µM
[34] = second compound 10 µM, first compound 1 µM
[35] = second compound 10 µM, first compound 3.16 µM
[36] = second compound 10 µM, first compound 10 µM
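Note: spheroids exposed to the agents for 7 days.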

Compound: Cn1ncnc1[C@H]1c2n[nH]c(=O)c3cc(F)cc(c23)N[C@@H]1c1ccc(F)cc1 + CN1CCN(c2cc(C(=O)Nc3cc4cc(-c5cnn(C)c5)ccc4cn3)ccn2)CC1
- IC50 (second compound 0.0316 µM): > 100 nM
- IC50 (second compound 0.1 µM): > 100 nM
- IC50 (second compound 0.316 µM): < 0.316 nM
- IC50 (second compound 1 µM): < 0.316 nM
- IC50 (second compound 3.16 µM): < 0.316 nM
- IC50 (second compound 10 µM): < 0.316 nM
- viability, T/C (second compound 0.0316 µM, first compound 0.000316 µM): 93.5%
- viability, T/C (second compound 0.0316 µM, first compound 0.001 µM): 84.3%
- viability, T/C (second compound 0.0316 µM, first compound 0.00316 µM): 91.8%
- viability, T/C (second compound 0.0316 µM, first compound 0.01 µM): 119%
- viability, T/C [1]: 95.1%
- viability, T/C [2]: 82.2%
- viability, T/C (second compound 0.1 µM, first compound 0.000316 µM): 80.5%
- viability, T/C (second compound 0.1 µM, first compound 0.001 µM): 78.7%
- viability, T/C (second compound 0.1 µM, first compound 0.00316 µM): 83.9%
- viability, T/C (second compound 0.1 µM, first compound 0.01 µM): 86.8%
- viability, T/C [3]: 85.8%
- viability, T/C [4]: 59.7%
- viability, T/C (second compound 0.316 µM, first compound 0.000316 µM): 29.9%
- viability, T/C (second compound 0.316 µM, first compound 0.001 µM): 33.9%
- viability, T/C (second compound 0.316 µM, first compound 0.00316 µM): 28.4%
- viability, T/C (second compound 0.316 µM, first compound 0.01 µM): 27%
- viability, T/C [5]: 21.4%
- viability, T/C [6]: 18.4%
- viability, T/C (second compound 1 µM, first compound 0.000316 µM): 0.11%
- viability, T/C (second compound 1 µM, first compound 0.001 µM): 2%
- viability, T/C (second compound 1 µM, first compound 0.00316 µM): 2.06%
- viability, T/C (second compound 1 µM, first compound 0.01 µM): 0.15%
- viability, T/C [7]: 1.32%
- viability, T/C [8]: 2.11%
- viability, T/C (second compound 3.16 µM, first compound 0.000316 µM): 0.08%
- viability, T/C (second compound 3.16 µM, first compound 0.001 µM): 0.77%
- viability, T/C (second compound 3.16 µM, first compound 0.00316 µM): 4.18%
- viability, T/C (second compound 3.16 µM, first compound 0.01 µM): 0.08%
- viability, T/C [9]: 1.73%
- viability, T/C [10]: 1.99%
- viability, T/C (second compound 10 µM, first compound 0.000316 µM): 0.17%
- viability, T/C (second compound 10 µM, first compound 0.001 µM): 0.14%
- viability, T/C (second compound 10 µM, first compound 0.00316 µM): 1.47%
- viability, T/C (second compound 10 µM, first compound 0.01 µM): 0.12%
- viability, T/C [11]: 2.53%
- viability, T/C [12]: 1.76%

Compound: Nc1ccn(C2OC(CO)C(O)C2(F)F)c(=O)n1 (stereo unspecified) + CN1CCN(c2cc(C(=O)Nc3cc4cc(-c5cnn(C)c5)ccc4cn3)ccn2)CC1
- IC50 (second compound 0.0316 µM): < 31.6 nM
- IC50 (second compound 0.1 µM): < 31.6 nM
- IC50 (second compound 0.316 µM): < 31.6 nM
- IC50 (second compound 1 µM): < 31.6 nM
- IC50 (second compound 3.16 µM): < 31.6 nM
- IC50 (second compound 10 µM): < 31.6 nM
- viability, T/C [1]: 3.79%
- viability, T/C [2]: 2.43%
- viability, T/C [13]: 4.26%
- viability, T/C [14]: 2.86%
- viability, T/C [15]: 2.91%
- viability, T/C [16]: 3.08%
- viability, T/C [3]: 4.42%
- viability, T/C [4]: 3.79%
- viability, T/C [17]: 4.8%
- viability, T/C [18]: 3.59%
- viability, T/C [19]: 3.13%
- viability, T/C [20]: 4.21%
- viability, T/C [5]: 4.28%
- viability, T/C [6]: 2.41%
- viability, T/C [21]: 3.74%
- viability, T/C [22]: 1.82%
- viability, T/C [23]: 1.62%
- viability, T/C [24]: 5.1%
- viability, T/C [7]: 0.09%
- viability, T/C [8]: 1.02%
- viability, T/C [25]: 2.83%
- viability, T/C [26]: 0.09%
- viability, T/C [27]: 2.43%
- viability, T/C [28]: 0.07%
- viability, T/C [9]: 1.17%
- viability, T/C [10]: 1.23%
- viability, T/C [29]: 0.12%
- viability, T/C [30]: 1.22%
- viability, T/C [31]: 0.16%
- viability, T/C [32]: 0.38%
- viability, T/C [11]: 2.37%
- viability, T/C [12]: 0.17%
- viability, T/C [33]: 0.7%
- viability, T/C [34]: 0.17%
- viability, T/C [35]: 1.04%
- viability, T/C [36]: 0.35%

Compound: O=c1[nH]cc(F)c(=O)[nH]1 + CN1CCN(c2cc(C(=O)Nc3cc4cc(-c5cnn(C)c5)ccc4cn3)ccn2)CC1
- IC50 (second compound 0.0316 µM): 58.4 nM
- IC50 (second compound 0.1 µM): 62.1 nM
- IC50 (second compound 0.316 µM): < 31.6 nM
- IC50 (second compound 1 µM): < 31.6 nM
- IC50 (second compound 3.16 µM): < 31.6 nM
- IC50 (second compound 10 µM): < 31.6 nM
- viability, T/C [1]: 76.7%
- viability, T/C [2]: 26.6%
- viability, T/C [13]: 13.9%
- viability, T/C [14]: 9.49%
- viability, T/C [15]: 10.6%
- viability, T/C [16]: 13.6%
- viability, T/C [3]: 74.7%
- viability, T/C [4]: 32.6%
- viability, T/C [17]: 12.5%
- viability, T/C [18]: 10.6%
- viability, T/C [19]: 10.2%
- viability, T/C [20]: 16.8%
- viability, T/C [5]: 25.9%
- viability, T/C [6]: 14.3%
- viability, T/C [21]: 14.6%
- viability, T/C [22]: 7.98%
- viability, T/C [23]: 6.74%
- viability, T/C [24]: 5.92%
- viability, T/C [7]: 0.13%
- viability, T/C [8]: 4.38%
- viability, T/C [25]: 0.56%
- viability, T/C [26]: 0.05%
- viability, T/C [27]: 2.73%
- viability, T/C [28]: 0.78%
- viability, T/C [9]: 0.03%
- viability, T/C [10]: 3.69%
- viability, T/C [29]: 4.78%
- viability, T/C [30]: 0.03%
- viability, T/C [31]: 0.16%
- viability, T/C [32]: 0.08%
- viability, T/C [11]: 0.03%
- viability, T/C [12]: 0.64%
- viability, T/C [33]: 2.65%
- viability, T/C [34]: 0.06%
- viability, T/C [35]: 4.08%
- viability, T/C [36]: 1.3%
